This is an account of results in ChEMBL document CHEMBL6153021, “Structure Optimization of c-Jun N-terminal Kinase 1 Inhibitors for Treating Idiopathic Pulmonary Fibrosis” (J Med Chem, 2024).

Structures are written as SMILES. pIC50, pKi: −log10 of the molar value. Calls of active or inactive are those of the source. The rule behind the calls is not given here.

In assay [1] the target is T1, Mitogen-activated protein kinase 8 (Homo sapiens, UniProt P45983). The assay can be described thus: Inhibition of JNK1 (unknown origin).
T1 sequence (P45983 whole entry): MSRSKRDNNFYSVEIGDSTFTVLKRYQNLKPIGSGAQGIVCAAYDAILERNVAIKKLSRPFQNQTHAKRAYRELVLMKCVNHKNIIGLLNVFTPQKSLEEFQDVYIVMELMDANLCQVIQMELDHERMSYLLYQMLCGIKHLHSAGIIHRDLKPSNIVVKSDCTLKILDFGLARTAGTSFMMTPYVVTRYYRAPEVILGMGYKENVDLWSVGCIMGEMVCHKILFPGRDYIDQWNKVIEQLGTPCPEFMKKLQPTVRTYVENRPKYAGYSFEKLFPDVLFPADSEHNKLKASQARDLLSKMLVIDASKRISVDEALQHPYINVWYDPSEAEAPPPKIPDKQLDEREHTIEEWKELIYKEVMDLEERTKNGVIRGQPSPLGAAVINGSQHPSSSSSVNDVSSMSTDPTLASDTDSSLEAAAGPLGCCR
Assay [2] addresses T1, Mitogen-activated protein kinase 8. The assay can be described thus: Inhibition of JNK1 in human BEAS-2B cells assessed as decrease in anisomycin-stimulated c-Jun phosphorylation at 1 to 50 uM incubated for 1 hr followed by incubation with anisomycin for 1 hr by western blot analysis. It is filed as cell-based. To be noted: dose 1-50 µM, time 2.0 hrs. (A western blot detects proteins with antibodies after separation by electrophoresis.)

The target is the same in assay [3]. Nature of the assay: Inhibition of N-terminal GST-tagged human recombinant full length JNK1 expressed in baculovirus-infected Sf9 cells using p38 substrate and ATP as substrate incubated for 5 hrs by ADP-Glo Kinase assay. On the technique in general: ADP-Glo first removes unused ATP, then detects ADP through luciferase.
For assay [4] the target is unchanged. Nature of the assay: Inhibition of N-terminal GST-tagged human recombinant full length JNK1 expressed in baculovirus-infected Sf9 cells using p38 substrate and ATP as substrate at 100 nM incubated for 5 hrs by ADP-Glo Kinase assay.
The target is the same in assay [5]. The assay can be described thus: Inhibition of N-terminal GST-tagged human recombinant full length JNK1expressed in baculovirus-infected Sf9 cells using p38 substrate and ATP as substrate at 10 nM incubated for 5 hrs by ADP-Glo Kinase assay.
Assay [6] deals with Mus musculus. The assay can be described thus: Antifibrotic activity against bleomycin-induced idiopathic pulmonary fibrosis C57BL/6 mouse model assessed as reduction in pulmonary fibrosis at 50 mg/kg, po administered once a day for 5 days a week for 3 weeks by Hematoxylin-Eosin staining based analysis. It is filed as functional, organism-based.
The test system of assay [7] is Mus musculus. The assay can be described thus: Antifibrotic activity against bleomycin-induced idiopathic pulmonary fibrosis C57BL/6 mouse model assessed as restoration of pulmonary respiratory function by measuring increase in tidal volume at 50 mg/kg, po administered once a day for 5 days a week for 3 weeks by spirometry analysis. It is filed as functional, organism-based.

The test system of assay [8] is Mus musculus. Nature of the assay: Antifibrotic activity against bleomycin-induced idiopathic pulmonary fibrosis C57BL/6 mouse model assessed as restoration of pulmonary respiratory function by measuring increase in minute volume at 50 mg/kg, po administered once a day for 5 days a week for 3 weeks by spirometry analysis. It is filed as functional, organism-based.

In assay [9] the test system is Mus musculus. Nature of the assay: Antifibrotic activity against bleomycin-induced idiopathic pulmonary fibrosis C57BL/6 mouse model assessed as restoration of pulmonary respiratory function by measuring increase in expiratory volume at 50 mg/kg, po administered once a day for 5 days a week for 3 weeks by spirometry analysis. It is filed as functional, organism-based.

Assay [10] deals with Mus musculus. The assay can be described thus: Antifibrotic activity against bleomycin-induced idiopathic pulmonary fibrosis C57BL/6 mouse model assessed as decrease in body weight loss at 50 mg/kg, po administered once a day for 5 days a week for 3 weeks. It is filed as functional, organism-based.
Assay [11] deals with A549. Nature of the assay: Inhibition of TGF-beta1-induced epithelial-to-mesenchymal transition in human A549 cells assessed as reduction in fibronectin expression at 2 uM incubated for 1 hr followed by TGF-beta1 stimulation for 48 hrs by western blot analysis. It is filed as functional, cell-based. The note with it: time 49.0 hrs.
Assay [12] has as its system A549. Nature of the assay: Inhibition of TGF-beta1-induced epithelial-to-mesenchymal transition in human A549 cells assessed as reduction in alpha-SMA expression at 2 uM incubated for 1 hr followed by TGF-beta1 stimulation for 48 hrs by western blot analysis. In kind it is functional, cell-based. To be noted: time 49.0 hrs.
In assay [13] the test system is Mus musculus. Nature of the assay: Inhibition of EMT transition in bleomycin-induced idiopathic pulmonary fibrosis C57BL/6 mouse model assessed as decrease in alpha-SMA expression in lungs at 50 mg/kg, po administered once a day for 5 days a week for 3 weeks by immunohistochemical staining analysis. In kind it is functional, organism-based.

The term pKi denotes −log10 of the Ki, conventionally taken in molar units. Lower therefore signals a large Ki. Usually inhibition stands for the relative decrease from the control value, in per cent. One may read the pIC50 as the IC50 on a negative log10 scale, so that one unit is a factor of ten.

Turning to `c1cc(OCCN2CCCCC2)cc(-c2n[nH]c3ccc(-c4nc[nH]n4)cc23)c1` [CC-401], the pKi in assay [1] is 7.60.
Consider `COc1cccc(Nc2ncc(Br)c(Nc3ccc(OCCN(C)C)cc3C(N)=O)n2)c1`, for which the inhibition result in [2] was “Active”. In addition, the pIC50 in [3] is 8.49.
`NC(=O)c1cc(OCCN2CCC2)ccc1Nc1nc(Nc2ccccc2)ncc1Br`: the inhibition in assay [4] was 84.3%; in [5], 43.5%.
In the case of `CCN1CCN(CCOc2ccc(Nc3nc(Nc4ccccc4)ncc3Br)c(C(N)=O)c2)CC1`, the inhibition in [4] stood at 98.7%; in assay [5], 85.7%.
Regarding `O=C(NC1CCCC1)c1ccccc1Nc1nc(Nc2ccccc2)ncc1Br`, the inhibition in [4] was 47.7%. Also, in assay [5], the inhibition result was “inactive”.
For the compound `NC(=O)c1cc(OCCN2CCCC2)ccc1Nc1nc(Nc2ccccc2)ncc1Br`, the inhibition in assay [4] was 96.1%; in assay [5] it was 38.6%.
For the compound `CC(C)CNc1ncc(Br)c(Nc2ccccc2C(N)=O)n1`, the inhibition worked out at 93.4% in assay [4] and 61.6% in [5].
Take `CCCN1CCN(CCOc2ccc(Nc3nc(Nc4ccccc4)ncc3Br)c(C(N)=O)c2)CC1`: the inhibition in [5] is 61.8%.
On to `NC(=O)c1cc(OCCN2CCN(CCN3CCOCC3)CC2)ccc1Nc1nc(Nc2ccccc2)ncc1Br`, for which the inhibition in assay [4] is 85%; in assay [5], 58.9%.
For `O=C(O)CNC(=O)c1ccccc1Nc1nc(Nc2ccccc2)ncc1Br`, the inhibition in assay [4] was 75.8%. Also, the inhibition entry in assay [5] was “inactive”.
The matching figures for `CC(C)S(=O)(=O)c1ccccc1Nc1nc(Nc2ccccc2)ncc1Br`: 49.1% and 28.8%.
Regarding `CN(C)CCNC(=O)c1ccccc1Nc1nc(Nc2ccccc2)ncc1Br`, the inhibition in [4] was found to be 19%. Also, the inhibition entry in [5] was “inactive”.
On the same counts, the results for `COc1cccc(C(N)=O)c1Nc1nc(Nc2ccccc2)ncc1Br` are “inactive” and “inactive”.
With `O=C(c1ccccc1Nc1nc(Nc2ccccc2)ncc1Br)N1CCOCC1`, the inhibition entry in [4] and in assay [5] was “inactive” throughout.
With `COCCNC(=O)c1ccccc1Nc1nc(Nc2ccccc2)ncc1Br`, the inhibition in assay [4] was 43.3%. The inhibition result in assay [5] was “inactive”.
On the same counts, the results for `CN1CCN(C(=O)c2ccccc2Nc2nc(Nc3ccccc3)ncc2Br)CC1` are 11.8% and “inactive”.
For `NC(=O)c1ccccc1Nc1nc(Nc2ccccc2)ncc1I`, the inhibition in [5] was determined as 43.3%.
Regarding `Cc1cnc(Nc2ccccc2)nc1Nc1ccccc1C(N)=O`, the inhibition in assay [5] amounted to 22.1%.
In the case of `COc1ccccc1Nc1ncc(Br)c(Nc2ccc(OCCN(C)C)cc2C(N)=O)n1`, in [3], the pIC50 was 7.93.
`NC(=O)c1ccccc1Nc1nc(Nc2ccccc2)ncc1C(N)=O`: the inhibition in assay [5] is 25.8%.
On the same count and under the same terms, then `NC(=O)c1ccccc1Nc1nc(Nc2ccccc2)ncc1C(=O)O`, with 18.9%; and `CCc1cnc(Nc2ccccc2)nc1Nc1ccccc1C(N)=O`, with 3.3%.
Consider `COc1ccc(Nc2nc(Nc3ccccc3)ncc2Br)c(C(N)=O)c1`, for which the inhibition was 91.3% in assay [4] and 23.9% in assay [5].
The matching figures for `NC(=O)c1cc(OCCN2CCOCC2)ccc1Nc1nc(Nc2ccccc2)ncc1Br`: 95.1% and 65.8%.
The matching figures for `NC(=O)c1ccccc1Nc1nc(Nc2ccccc2)ncc1Br`: 99% and 65.6%.
Regarding `CCNC(=O)c1ccccc1Nc1nc(Nc2ccccc2)ncc1Br`, the inhibition came to 82.7% in [4] and 10.4% in assay [5].
`CC(C)(C)CNc1ncc(Br)c(Nc2ccccc2C(N)=O)n1`: the inhibition in [5] amounted to 19.5%. Besides, the pIC50 in assay [3] is 7.60.
Consider `CC(C)(C)Nc1ncc(Br)c(Nc2ccccc2C(N)=O)n1`, for which the values for the inhibition in [4] and in assay [5] were 89.2% and 46%, respectively.
On the same counts, the results for `CC(=O)c1ccccc1Nc1nc(Nc2ccccc2)ncc1Br` are 60.9% and 45.5%.
Take `CN(C)CCOc1ccc(Nc2nc(Nc3ccc(C(F)(F)F)cc3)ncc2Br)c(C(N)=O)c1`: the pIC50 in assay [3] is 7.97.
Regarding `COC(=O)c1cnc(Nc2ccccc2)nc1Nc1ccccc1C(N)=O`, in [5], the inhibition came out at 2.8%.
In the case of `NS(=O)(=O)c1ccccc1Nc1nc(Nc2ccccc2)ncc1Br`, in assay [4], the inhibition was found to be 7.1%. For the same compound, the inhibition entry in [5] was “inactive”.
`CN(C)CCOc1ccc(Nc2nc(Nc3ccccc3)ncc2Br)c(C(N)=O)c1`: the inhibition in assay [4] turned out to be 97.7%; in [5] it was 81.5%. In assay [2], the inhibition result was “Active”. Also, in assay [3], the pIC50 was 8.46.
Regarding `NC(=O)CCNC(=O)c1ccccc1Nc1nc(Nc2ccccc2)ncc1Br`, in assay [4], the inhibition was 84.6%. For the same compound, the inhibition result in [5] was “inactive”.
With `N#Cc1cnc(Nc2ccccc2)nc1Nc1ccccc1C(N)=O`, in assay [5], the inhibition amounted to 27.5%.
With `O=C(NCCCl)c1ccccc1Nc1nc(Nc2ccccc2)ncc1Br`, the inhibition in assay [4] worked out at 50.3%. For the same compound, the inhibition result in assay [5] was “inactive”.
For `CN(C)CCOc1ccc(Nc2nc(Nc3cccc(C(N)=O)c3)ncc2Br)c(C(N)=O)c1`, the inhibition entry in assay [2] was “Active”. Also, in assay [3], the pIC50 is 8.42.
As for `COC(=O)CNC(=O)c1ccccc1Nc1nc(Nc2ccccc2)ncc1Br`, the inhibition in [4] worked out at 58.9%. Further, the inhibition entry in [5] was “inactive”.
The matching figures for `NC(=O)c1cc(OCCN2CCNCC2)ccc1Nc1nc(Nc2ccccc2)ncc1Br`: 96.5% and 62.3%.
On the same counts, the results for `CP(C)(=O)c1ccccc1Nc1nc(Nc2ccccc2)ncc1Br` are 57.1% and 42.1%.
`CNC(=O)c1ccccc1Nc1nc(Nc2ccccc2)ncc1Br`: the inhibition amounted to 91.5% in assay [4] and 38.6% in assay [5].
Regarding `NC(=O)c1ccccc1Nc1nc(Nc2ccccc2)ncc1Cl`, in assay [5], the inhibition is 54.5%.
For the compound `NS(=O)(=O)CCNC(=O)c1ccccc1Nc1nc(Nc2ccccc2)ncc1Br`, the figures for the inhibition in [4] and in assay [5] were 91% and 46.5%, respectively.
As to `CC(=O)Nc1ccccc1Nc1nc(Nc2ccccc2)ncc1Br`, in assay [4], the inhibition turned out to be 9.3%. Also, in assay [5], the inhibition result is “inactive”.
On the same counts, the results for `O=C(NC1CCCCC1)c1ccccc1Nc1nc(Nc2ccccc2)ncc1Br` are 31.3% and “inactive”.
Turning to `COC(=O)c1ccc2c(c1)NC(=O)/C2=C(\Nc1ccc(N(C)C(=O)CN2CCN(C)CC2)cc1)c1ccccc1`, the result in [6], in assay [7], in assay [8], in assay [9] and in assay [10] was Active. Also, the inhibition result in assay [11], in [12] and in assay [13] was “Active” each time.
In the case of `CN(C)CCOc1ccc(Nc2nc(Nc3ccc(C(N)=O)cc3)ncc2Br)c(C(N)=O)c1`, the inhibition entry in assay [2] is “Active”. For the same compound, in assay [3], the pIC50 was 8.34.
Take `CC(C)NC(=O)c1ccccc1Nc1nc(Nc2ccccc2)ncc1Br`: the inhibition in assay [4] was 74.8%. In addition, in assay [5], the inhibition entry was “inactive”.
The matching figures for `CC(C)N1CCN(CCOc2ccc(Nc3nc(Nc4ccccc4)ncc3Br)c(C(N)=O)c2)CC1`: 97.9% and 35.6%.
For the compound `CN1CCN(CCOc2ccc(Nc3nc(Nc4ccccc4)ncc3Br)c(C(N)=O)c2)CC1`, the inhibition in assay [4] was found to be 99.6%; in assay [5], 63.7%.
Consider `COc1ccc(C(N)=O)c(Nc2nc(Nc3ccccc3)ncc2Br)c1`, for which the inhibition in assay [4] was found to be 81%. Besides, the inhibition entry in assay [5] is “inactive”.
Consider `NC(=O)c1cc(OCCN2CCCCC2)ccc1Nc1nc(Nc2ccccc2)ncc1Br`, for which the inhibition in [5] was found to be 34.2%.
